Test results reported in PMC4505863 (ACS Chemical Neuroscience, 2014).
Read-outs that look alike come from different tables or passages of the source.

Assays:
[1] = test system: 5-HT2 type receptors in rat jugular vein; settings: cited from earlier work
[2] = test system: isolated guinea pig uterus; settings: cited from earlier work
[3] = test system: isolated guinea pig taenia cecum; settings: cited from earlier work
5-HT2A receptor [4] = target: T1, 5-HT2A receptor (Homo sapiens, UniProt P28223); settings: cited from earlier work
[5] = test system: 5-HT2 type receptors in rabbit aorta; settings: cited from earlier work
rat stomach fundus = settings: cited from earlier work
r5-HT2A = r5-HT2A (Rattus norvegicus, UniProt P14842); assay: Ca2+ mobilization assay; format: cell-based; settings: for EC50: r5-HT2A EC50, Ca2+ mobilization; for Emax: read-out: r5-HT2A Emax, percentage of the maximum response to 5-HT
5-HT3 = target: T2, 5-HT3 (Homo sapiens, UniProt P46098); assay: PDSP screening affinity 5-HT3; format: binding
T2 sequence (P46098 24-478): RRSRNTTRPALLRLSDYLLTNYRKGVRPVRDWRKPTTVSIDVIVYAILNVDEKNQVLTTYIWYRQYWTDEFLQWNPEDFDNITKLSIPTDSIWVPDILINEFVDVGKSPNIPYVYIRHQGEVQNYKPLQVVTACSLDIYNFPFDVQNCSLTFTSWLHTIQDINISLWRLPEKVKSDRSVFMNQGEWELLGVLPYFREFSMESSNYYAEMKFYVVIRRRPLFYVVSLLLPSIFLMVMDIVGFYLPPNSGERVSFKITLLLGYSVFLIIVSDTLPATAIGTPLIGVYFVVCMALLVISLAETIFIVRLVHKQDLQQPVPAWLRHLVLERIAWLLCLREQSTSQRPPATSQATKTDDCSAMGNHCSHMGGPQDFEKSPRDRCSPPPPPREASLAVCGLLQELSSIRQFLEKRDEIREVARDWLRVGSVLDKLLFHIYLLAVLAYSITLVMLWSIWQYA

5-HT1D = 5-HT1D (Homo sapiens, UniProt P28221); assay: PDSP screening affinity 5-HT1D; format: binding
r5-HT2C = target: T3, r5-HT2C (Rattus norvegicus, UniProt P08909); assay: Ca2+ mobilization assay; format: cell-based; settings: for Emax: read-out: r5-HT2C Emax
T3 sequence (P08909 33-460): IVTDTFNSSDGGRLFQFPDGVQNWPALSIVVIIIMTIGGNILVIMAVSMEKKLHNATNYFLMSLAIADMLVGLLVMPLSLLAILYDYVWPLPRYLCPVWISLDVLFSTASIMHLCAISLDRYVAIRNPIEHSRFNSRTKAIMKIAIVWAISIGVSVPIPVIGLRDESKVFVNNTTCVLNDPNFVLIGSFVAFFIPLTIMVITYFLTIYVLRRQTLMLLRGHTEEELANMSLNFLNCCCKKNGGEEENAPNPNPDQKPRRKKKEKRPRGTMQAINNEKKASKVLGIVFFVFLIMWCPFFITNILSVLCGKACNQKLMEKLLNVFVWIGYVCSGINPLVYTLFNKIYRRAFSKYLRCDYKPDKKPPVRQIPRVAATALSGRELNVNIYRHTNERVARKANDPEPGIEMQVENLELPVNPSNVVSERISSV

5-ht1e = 5-ht1e (Homo sapiens, UniProt P28566); assay: PDSP screening affinity 5-ht1e; format: binding
5-HT2B = 5-HT2B (Homo sapiens, UniProt P41595); assay: PDSP screening affinity 5-HT2B; format: binding
h5-HT2B = h5-HT2B (Homo sapiens, UniProt P41595); assay: Ca2+ mobilization assay; format: cell-based; settings: for Emax: HEK293, read-out: h5-HT2B Emax
5-HT6 = 5-HT6 (Homo sapiens, UniProt P50406); assay: PDSP screening affinity 5-HT6; format: binding; settings: 5-HT6 affinity
5-HT2A receptor [6] = target: T1, 5-HT2A receptor; assay: h5-HT2A affinity, agonist radioligand [125I]DOI; format: binding
human 5-HT2C receptor [7] = target: T4, human 5-HT2C receptor (Homo sapiens, UniProt P28335); assay: h5-HT2C affinity, agonist radioligand [125I]DOI; format: binding
T4 sequence (P28335 33-458): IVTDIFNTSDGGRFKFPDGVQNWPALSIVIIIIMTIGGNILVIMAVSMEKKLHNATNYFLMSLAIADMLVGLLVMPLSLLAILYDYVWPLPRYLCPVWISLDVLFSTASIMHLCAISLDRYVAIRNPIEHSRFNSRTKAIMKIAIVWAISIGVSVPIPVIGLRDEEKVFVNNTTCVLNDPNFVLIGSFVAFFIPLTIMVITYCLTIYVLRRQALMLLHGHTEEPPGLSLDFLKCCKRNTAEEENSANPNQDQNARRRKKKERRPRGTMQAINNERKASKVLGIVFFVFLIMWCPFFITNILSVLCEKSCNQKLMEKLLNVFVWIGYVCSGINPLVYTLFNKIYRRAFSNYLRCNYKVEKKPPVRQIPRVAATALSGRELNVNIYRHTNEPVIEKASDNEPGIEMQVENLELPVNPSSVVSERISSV

5-HT1A = target: T5, 5-HT1A (Homo sapiens, UniProt P08908); assay: PDSP screening affinity 5-HT1A; format: binding; settings: 5-HT1A affinity
T5 sequence (P08908 1-422): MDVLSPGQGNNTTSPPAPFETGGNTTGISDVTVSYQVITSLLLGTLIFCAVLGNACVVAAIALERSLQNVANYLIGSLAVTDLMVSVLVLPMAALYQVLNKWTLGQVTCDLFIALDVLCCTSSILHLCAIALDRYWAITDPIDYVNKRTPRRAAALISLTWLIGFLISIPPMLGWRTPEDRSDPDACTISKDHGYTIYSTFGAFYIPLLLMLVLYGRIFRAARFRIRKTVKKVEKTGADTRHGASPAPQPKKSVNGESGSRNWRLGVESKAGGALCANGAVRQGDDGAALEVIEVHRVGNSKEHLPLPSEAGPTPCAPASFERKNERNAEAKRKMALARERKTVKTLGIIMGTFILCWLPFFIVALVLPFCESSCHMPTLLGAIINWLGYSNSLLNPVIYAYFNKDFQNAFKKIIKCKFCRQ

rat tail artery = settings: cited from earlier work; for pEC50, rat tail artery: agonist potency
5-HT7 = 5-HT7 (Homo sapiens, UniProt P34969); assay: PDSP screening affinity 5-HT7; format: binding; settings: 5-HT7 affinity
5-HT2A receptor [8] = target: T1, 5-HT2A receptor; assay: h5-HT2A affinity, antagonist radioligand [3H]ketanserin; format: binding
5-ht5a = 5-ht5a (Homo sapiens, UniProt P47898); assay: PDSP screening affinity 5-ht5a; format: binding; settings: 5-ht5a affinity
human 5-HT2C receptor [9] = target: T4, human 5-HT2C receptor; assay: h5-HT2C affinity, antagonist radioligand [3H]mesulergine; format: binding
5-HT1B = 5-HT1B (Homo sapiens, UniProt P28222); assay: PDSP screening affinity 5-HT1B; format: binding
h5-HT2C = target: T6, h5-HT2C (Homo sapiens, UniProt P28335); assay: Ca2+ mobilization assay; format: cell-based; settings: for Emax: HEK293, read-out: h5HT2C Emax; for EC50: h5HT2C EC50, Ca2+ mobilization
T6 sequence (P28335 33-458): T4 sequence (P28335 33-458)

h5-HT2A = h5-HT2A (Homo sapiens, UniProt P28223); assay: Ca2+ mobilization assay; format: cell-based; settings: for Emax: HEK293, read-out: h5-HT2A Emax, percentage of the maximum response to 5-HT
Male C57BL/6J mice [10] = settings: cited from earlier work
Male C57BL/6J mice [11] = assay: Mouse head twitch response; settings: for activity in the HTR assay (active / inactive): doses up to 30 mg/kg
5-HT2A receptor [12] = target: T1, 5-HT2A receptor; settings: authentic 4-bromo compound; cited from earlier work
5-HT2A = settings: cited from earlier work
[13] = percentage of the maximum response to 5-HT
[14] = r5-HT2C EC50, Ca2+ mobilization
[15] = h5-HT2B EC50, Ca2+ mobilization

5-HT2B, sequence (P41595 whole entry): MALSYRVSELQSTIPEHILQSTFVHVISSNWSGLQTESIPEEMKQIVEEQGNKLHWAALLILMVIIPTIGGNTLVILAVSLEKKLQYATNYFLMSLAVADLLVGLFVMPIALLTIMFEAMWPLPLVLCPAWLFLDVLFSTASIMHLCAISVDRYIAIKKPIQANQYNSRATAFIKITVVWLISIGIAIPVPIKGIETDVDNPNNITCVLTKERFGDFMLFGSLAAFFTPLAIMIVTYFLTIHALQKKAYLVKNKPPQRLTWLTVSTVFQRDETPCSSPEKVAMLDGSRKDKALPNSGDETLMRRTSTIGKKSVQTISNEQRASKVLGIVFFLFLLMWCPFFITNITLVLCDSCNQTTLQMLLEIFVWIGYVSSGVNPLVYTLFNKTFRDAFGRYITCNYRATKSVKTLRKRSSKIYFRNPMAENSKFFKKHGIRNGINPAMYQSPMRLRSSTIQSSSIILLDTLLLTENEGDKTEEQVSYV
h5-HT2B, sequence (P41595 whole entry): as above
5-HT1B, sequence (P28222 whole entry): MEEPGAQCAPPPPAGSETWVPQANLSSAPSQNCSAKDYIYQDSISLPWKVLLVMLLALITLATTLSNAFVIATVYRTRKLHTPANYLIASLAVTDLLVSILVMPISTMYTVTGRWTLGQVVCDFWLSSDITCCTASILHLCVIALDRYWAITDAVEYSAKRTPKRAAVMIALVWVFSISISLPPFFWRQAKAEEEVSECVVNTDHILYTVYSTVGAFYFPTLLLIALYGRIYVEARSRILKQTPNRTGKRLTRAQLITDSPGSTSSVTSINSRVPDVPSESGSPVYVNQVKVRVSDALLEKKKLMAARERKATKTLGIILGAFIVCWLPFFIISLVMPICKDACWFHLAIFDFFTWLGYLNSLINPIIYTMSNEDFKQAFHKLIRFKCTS
5-HT7, sequence (P34969 whole entry): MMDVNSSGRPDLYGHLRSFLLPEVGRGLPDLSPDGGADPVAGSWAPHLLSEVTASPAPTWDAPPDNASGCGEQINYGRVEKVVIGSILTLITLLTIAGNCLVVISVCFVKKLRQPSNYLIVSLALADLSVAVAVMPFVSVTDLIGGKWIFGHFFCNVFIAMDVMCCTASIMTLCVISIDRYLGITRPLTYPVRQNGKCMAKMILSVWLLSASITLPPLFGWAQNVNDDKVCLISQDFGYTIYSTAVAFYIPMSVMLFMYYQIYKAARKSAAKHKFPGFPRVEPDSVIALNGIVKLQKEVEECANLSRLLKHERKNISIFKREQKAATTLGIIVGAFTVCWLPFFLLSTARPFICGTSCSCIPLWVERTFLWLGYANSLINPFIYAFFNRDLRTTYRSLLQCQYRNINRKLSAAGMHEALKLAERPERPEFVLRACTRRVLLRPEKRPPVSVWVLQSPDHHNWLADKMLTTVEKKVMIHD
5-HT6, sequence (P50406 whole entry): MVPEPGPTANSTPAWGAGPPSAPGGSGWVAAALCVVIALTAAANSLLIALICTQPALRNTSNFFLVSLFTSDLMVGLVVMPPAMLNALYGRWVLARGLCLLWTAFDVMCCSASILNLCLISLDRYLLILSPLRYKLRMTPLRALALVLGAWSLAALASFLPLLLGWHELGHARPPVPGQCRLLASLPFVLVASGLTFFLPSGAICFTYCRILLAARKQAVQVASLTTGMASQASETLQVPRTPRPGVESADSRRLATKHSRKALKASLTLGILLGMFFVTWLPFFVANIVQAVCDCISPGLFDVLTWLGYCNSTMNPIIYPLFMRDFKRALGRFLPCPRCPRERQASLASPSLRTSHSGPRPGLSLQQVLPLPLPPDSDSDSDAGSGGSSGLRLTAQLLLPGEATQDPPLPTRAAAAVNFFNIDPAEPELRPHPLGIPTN
r5-HT2A, sequence (P14842 whole entry): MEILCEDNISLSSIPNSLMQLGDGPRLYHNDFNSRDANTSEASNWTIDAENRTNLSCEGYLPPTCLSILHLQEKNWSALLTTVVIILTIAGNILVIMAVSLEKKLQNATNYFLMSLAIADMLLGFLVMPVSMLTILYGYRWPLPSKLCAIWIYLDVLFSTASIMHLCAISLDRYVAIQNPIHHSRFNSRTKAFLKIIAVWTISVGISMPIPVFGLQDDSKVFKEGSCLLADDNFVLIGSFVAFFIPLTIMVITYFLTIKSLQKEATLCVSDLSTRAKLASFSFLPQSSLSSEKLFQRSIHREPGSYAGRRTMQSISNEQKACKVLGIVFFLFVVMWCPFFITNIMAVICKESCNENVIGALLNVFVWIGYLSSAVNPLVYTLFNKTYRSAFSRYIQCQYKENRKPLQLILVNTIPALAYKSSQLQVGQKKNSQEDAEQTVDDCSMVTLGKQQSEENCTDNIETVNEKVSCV
h5-HT2A, sequence (P28223 whole entry): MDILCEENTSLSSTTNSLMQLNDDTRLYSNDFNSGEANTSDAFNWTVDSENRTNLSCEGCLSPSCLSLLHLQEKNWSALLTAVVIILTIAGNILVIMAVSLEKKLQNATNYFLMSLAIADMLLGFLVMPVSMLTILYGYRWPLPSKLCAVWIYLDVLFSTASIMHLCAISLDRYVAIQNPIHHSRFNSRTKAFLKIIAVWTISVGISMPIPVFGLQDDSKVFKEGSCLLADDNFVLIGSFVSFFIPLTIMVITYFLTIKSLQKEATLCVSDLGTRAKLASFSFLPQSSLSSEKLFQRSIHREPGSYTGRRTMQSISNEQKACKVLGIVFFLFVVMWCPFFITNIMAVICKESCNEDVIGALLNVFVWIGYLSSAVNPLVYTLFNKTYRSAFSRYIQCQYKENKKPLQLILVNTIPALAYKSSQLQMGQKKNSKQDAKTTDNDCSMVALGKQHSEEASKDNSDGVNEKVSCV
T1 sequence (P28223 whole entry): as above
5-ht5a, sequence (P47898 whole entry): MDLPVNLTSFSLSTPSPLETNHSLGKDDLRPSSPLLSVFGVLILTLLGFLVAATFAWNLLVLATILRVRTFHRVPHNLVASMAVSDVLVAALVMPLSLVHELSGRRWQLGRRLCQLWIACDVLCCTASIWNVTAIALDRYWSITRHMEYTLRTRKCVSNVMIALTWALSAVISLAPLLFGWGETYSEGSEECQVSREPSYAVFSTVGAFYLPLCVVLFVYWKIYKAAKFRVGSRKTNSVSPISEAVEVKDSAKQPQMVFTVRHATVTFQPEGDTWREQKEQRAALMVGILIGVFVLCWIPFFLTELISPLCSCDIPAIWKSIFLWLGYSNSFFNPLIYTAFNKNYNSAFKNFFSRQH
5-HT1D, sequence (P28221 whole entry): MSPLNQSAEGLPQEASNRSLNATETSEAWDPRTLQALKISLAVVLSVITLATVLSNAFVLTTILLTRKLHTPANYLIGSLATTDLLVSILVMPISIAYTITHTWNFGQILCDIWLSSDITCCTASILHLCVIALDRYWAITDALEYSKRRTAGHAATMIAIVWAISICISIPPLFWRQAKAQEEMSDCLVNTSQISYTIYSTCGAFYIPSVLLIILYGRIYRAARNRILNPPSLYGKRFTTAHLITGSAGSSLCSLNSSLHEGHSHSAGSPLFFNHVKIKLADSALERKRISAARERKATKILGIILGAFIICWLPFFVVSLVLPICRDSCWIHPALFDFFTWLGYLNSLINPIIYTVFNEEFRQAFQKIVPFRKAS
5-ht1e, sequence (P28566 whole entry): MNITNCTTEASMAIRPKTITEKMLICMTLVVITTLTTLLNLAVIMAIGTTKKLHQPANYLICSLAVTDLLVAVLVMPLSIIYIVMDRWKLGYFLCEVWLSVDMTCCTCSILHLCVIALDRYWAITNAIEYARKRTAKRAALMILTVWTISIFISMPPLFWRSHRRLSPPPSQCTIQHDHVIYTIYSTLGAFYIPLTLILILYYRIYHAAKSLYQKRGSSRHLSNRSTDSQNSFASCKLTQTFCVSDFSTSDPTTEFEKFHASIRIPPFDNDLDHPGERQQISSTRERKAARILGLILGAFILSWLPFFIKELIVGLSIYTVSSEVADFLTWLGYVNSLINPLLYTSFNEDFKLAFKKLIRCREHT

Row | Structure (SMILES) | EC50 (r5-HT2A) [nM] | Ki (5-HT3) [nM] | Ki (5-HT1D) [nM] | EC50 (r5-HT2C; [14]) [nM] | Emax (r5-HT2C) [%] | Ki (5-ht1e) [nM] | Ki (5-HT2B; 5-HT2B pKi ± SEM) [nM] | Emax (h5-HT2B) [%] | Ki (5-HT6) [nM] | Ki (5-HT2A receptor [6]) [nM] | Ki (human 5-HT2C receptor [7]) [nM] | Ki (5-HT1A) [nM] | Ki (5-HT7) [nM] | Ki (5-HT2A receptor [8]) [nM] | Ki (5-ht5a) [nM] | Ki (human 5-HT2C receptor [9]) [nM] | Ki (5-HT1B; 5-HT1B affinity) [nM] | Emax (h5-HT2C) [%] | EC50 (h5-HT2C) [nM] | EC50 (h5-HT2A) [nM] | further results
1 | COc1ccc2[nH]cc(CCNCc3ccccc3)c2c1 [N-benzyl-5-methoxytryptamine] | – | – | – | – | – | – | – | – | – | – | – | – | – | – | – | – | – | – | – | – | agonist activity at 5-HT2 type receptors [1]: weak partial agonist activity; effect on serotonin-induced contraction [2]: antagonist; effect on serotonin-induced contraction [3]: antagonist; affinity relative to the parent primary amine (5-HT2A receptor [4]; receptor not given): essentially no effect on affinity; agonist activity at 5-HT2 type receptors [5]: weak partial agonist activity; effect on serotonin-induced contraction (rat stomach fundus): antagonist
2 | COc1cc(CCNCc2ccccc2OC)c(OC)cc1I [Compound 1, N-(2-Methoxybenzyl)-2-(4-iodo-2,5-dimethoxyphenyl)ethan-1-amine] | 11 | > 10000 | 533 | 95 | 104 ± 2 | > 10000 | 1.38 | 65 ± 2 | 32 | 0.158 | 0.5 | 1030 | 1540 | 0.52 | 2790 | 0.69 | 5890 | 92 | 41.7 | 4.2 | r5-HT2A Emax (r5-HT2A; [13]): 79.4 ± 1.1%; EC50 (h5-HT2B; h5-HT2B pEC50 ± SEM, Ca2+ mobilization, NA = not active, Emax ≤ 15%): 15.5 nM; h5-HT2A Ki (5-HT2A receptor [6]; [125I]DOI): subnanomolar affinity; h5-HT2C Ki (human 5-HT2C receptor [7]; [125I]DOI): subnanomolar affinity; pEC50, rat tail artery (rat tail artery): 10.09; Emax, rat tail artery (rat tail artery): 30%; Emax (h5-HT2A): 86.4 ± 1.4%; max counts (Male C57BL/6J mice [10]; HTR counts): 102.6; activity in the HTR assay (active / inactive) (Male C57BL/6J mice [10]): active; magnitude of peak effect × vehicle (Male C57BL/6J mice [10]; mouse head twitch): 16.0 × vehicle; maximally effective dose (Male C57BL/6J mice [10]; mouse head twitch): 1 mg/kg; ED50 mg/kg (95% CI), mouse head twitch (Male C57BL/6J mice [10]; test duration 30 min, ref 31 (Halberstadt and Geyer)): 0.078 (0.055–0.111) mg/kg
3 | COc1ccc2[nH]cc(CCNCc3ccccc3OC)c2c1 [Compound 5a, N-(2-Methoxybenzyl)-2-(5-methoxy-1H-indol-3-yl)ethan-1-amine] | 21 | > 10000 | 1290 | – | 102 ± 2 | > 10000 | 9.12 | 52 ± 2 | 87 | 1.51 | 3.39 | 231 | 1770 | 16.6 | > 10000 | 32.4 | > 10000 | 119 ± 6 | 57.1 | 1.9 | Emax (r5-HT2A): 80.9 ± 1.1%; EC50 (r5-HT2C; r5-HT2C pEC50 ± SEM, Ca2+ mobilization): 16.2 nM; Ki (5-HT2B; 5-HT2B affinity): 9 nM; EC50 (h5-HT2B; [15]): 6.7 nM; max counts (Male C57BL/6J mice [11]; HTR counts, SC): 25.4; ED50 (Male C57BL/6J mice [11]; Mus musculus, sc, read-out: ED50 mg/kg (95% CI), mouse head twitch): 3.15 mg/kg; activity in the HTR assay (active / inactive) (Male C57BL/6J mice [11]; SC): active; magnitude of peak effect × vehicle (Male C57BL/6J mice [11]; SC, mouse head twitch): 3.9 × vehicle; maximally effective dose (Male C57BL/6J mice [11]; SC, mouse head twitch): 10 mg/kg; pEC50, rat tail artery (rat tail artery): 7.08; h5-HT2A Emax (h5-HT2A; [13]): 85.2 ± 1.4%
4 | COc1ccc2[nH]cc(CCNCc3ccc(Br)cc3)c2c1 [Compound 5f, N-(4-Bromobenzyl)-2-(5-methoxy-1H-indol-3-yl)ethan-1-amine] | 1500 | > 10000 | 271 | 204 | 108 ± 2 | > 10000 | 148 | 90 ± 2 | 566 | 11.2 | 28.8 | 78 | 358 | 427 | 1030 | 251 | 4370 | 83 ± 7 | 529 | 430 | Emax (r5-HT2A): 77.6 ± 2.4%; affinity for the 5-HT2A receptor (5-HT2A receptor [12]): relatively low affinity; selectivity for 5-HT2A over 5-HT2C receptors (5-HT2A receptor [4]; 5-HT2A agonist radioligand, 5-HT2C antagonist radioligand): 1000 fold; Ki (5-HT2B; 5-HT2B affinity): 150 nM; EC50 (h5-HT2B; [15]): 290 nM; activity in the HTR assay (active / inactive) (Male C57BL/6J mice [11]; SC): None of the phenethylamines or tryptamines with 4-substituted N-benzyl groups, 4b, 4e, 5c, or 5f, was active; Ki (5-HT1B; 5-HT1B pKi ± SEM): 4470 nM; Emax (h5-HT2A): 90.3 ± 1.2%
5 | COc1cc(CCNCc2ccccc2O)c(OC)cc1C#N [Compound 25CN-NBOH, N-(2-hydroxybenzyl)-2,5-dimethoxy-4-cyanophenethylamine] | – | – | – | – | – | – | – | – | – | – | – | – | – | – | – | – | – | – | – | – | selectivity for 5-HT2A over 5-HT2C (5-HT2A): 100 fold
